{
  "source": "patent US10968225B2",
  "about": "“Compounds and compositions for the treatment of cystic fibrosis” (Fondazione Istituto Italiano Di Tecnologia, priority 2017, dated 2021)",
  "data": [
    {"target": "T1, mutant CFTR (Homo sapiens, UniProt P13569, DEL508-508)", "T1 construct": "expressed in transfected cells", "T1 sequence (P13569 with tags, fused parts or gaps DEL508-508)": "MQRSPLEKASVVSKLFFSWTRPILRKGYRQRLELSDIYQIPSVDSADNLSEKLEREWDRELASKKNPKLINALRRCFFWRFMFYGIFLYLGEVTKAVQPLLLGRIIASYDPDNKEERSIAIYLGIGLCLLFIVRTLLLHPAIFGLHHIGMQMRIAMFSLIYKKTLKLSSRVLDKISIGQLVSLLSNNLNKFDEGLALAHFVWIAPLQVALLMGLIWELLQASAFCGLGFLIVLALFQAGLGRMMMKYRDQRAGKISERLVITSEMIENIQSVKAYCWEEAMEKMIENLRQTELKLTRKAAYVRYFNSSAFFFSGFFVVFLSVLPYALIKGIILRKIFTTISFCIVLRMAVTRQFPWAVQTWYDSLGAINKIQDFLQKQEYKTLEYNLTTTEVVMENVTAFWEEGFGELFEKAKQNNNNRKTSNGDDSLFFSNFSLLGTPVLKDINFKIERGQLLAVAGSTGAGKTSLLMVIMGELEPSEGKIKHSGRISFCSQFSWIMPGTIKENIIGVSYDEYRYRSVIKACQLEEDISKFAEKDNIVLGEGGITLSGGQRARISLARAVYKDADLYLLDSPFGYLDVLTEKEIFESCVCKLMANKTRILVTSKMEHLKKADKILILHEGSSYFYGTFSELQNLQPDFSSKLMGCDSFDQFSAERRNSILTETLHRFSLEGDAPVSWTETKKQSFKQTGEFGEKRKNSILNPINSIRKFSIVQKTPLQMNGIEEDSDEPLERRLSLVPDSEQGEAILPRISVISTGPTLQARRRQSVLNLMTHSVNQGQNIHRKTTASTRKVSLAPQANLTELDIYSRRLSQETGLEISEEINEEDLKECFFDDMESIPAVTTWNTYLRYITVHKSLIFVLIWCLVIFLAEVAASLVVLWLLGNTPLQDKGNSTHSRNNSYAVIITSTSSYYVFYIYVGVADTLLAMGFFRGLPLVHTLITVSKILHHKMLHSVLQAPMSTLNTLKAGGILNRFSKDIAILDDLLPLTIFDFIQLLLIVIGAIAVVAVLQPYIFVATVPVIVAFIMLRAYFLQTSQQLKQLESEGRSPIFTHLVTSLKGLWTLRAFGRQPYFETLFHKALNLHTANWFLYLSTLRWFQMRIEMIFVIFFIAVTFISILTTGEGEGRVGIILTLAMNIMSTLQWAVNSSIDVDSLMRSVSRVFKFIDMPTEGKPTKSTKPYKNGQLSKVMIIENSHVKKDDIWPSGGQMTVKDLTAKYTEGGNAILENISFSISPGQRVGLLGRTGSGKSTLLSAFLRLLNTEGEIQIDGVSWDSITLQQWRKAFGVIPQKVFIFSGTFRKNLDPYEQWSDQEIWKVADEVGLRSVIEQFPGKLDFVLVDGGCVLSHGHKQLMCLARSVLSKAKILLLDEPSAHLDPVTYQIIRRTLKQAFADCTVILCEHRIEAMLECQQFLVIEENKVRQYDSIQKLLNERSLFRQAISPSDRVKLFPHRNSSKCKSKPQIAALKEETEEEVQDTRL", "assay": "Fluorescence (HS-YFP) assay for CFTR activity, corrector assay", "assay_type": "cell-based", "conditions": "CFBE41o- and FRT cells with stable expression of mutant CFTR, read-out: activity (EC50)", "units": {"EC50": "nM"}, "values": [
      {"smiles": "CN(C(=O)c1cccc(-n2nc(C(F)(F)F)c3c2C(Oc2ccc(C(=O)O)cc2)CCC3)c1)c1cnc2c(c1)OCC2", "note": "(single isomer, unassigned) [Compound 275, (S) or (R)-4-[[1-[3-[2,3-Dihydrofuro[3,2-b]pyridin-6-yl(methyl)carbamoyl]phenyl]-3-(trifluoromethyl)-4,5,6,7-tetrahydroindazol-7-yl]oxy]benzoic acid]", "EC50": "< 1000"},
      {"smiles": "CN(C(=O)c1cccc(-n2nc(C(F)(F)F)c3c2C(Oc2ccc(C(=O)O)cc2)CCC3)c1)c1cnc2c(c1)OCC2", "note": "(single isomer, unassigned) [Compound 276, (R) or (S)-4-[[1-[3-[2,3-Dihydrofuro[3,2-b]pyridin-6-yl(methyl)carbamoyl]phenyl]-3-(trifluoromethyl)-4,5,6,7-tetrahydroindazol-7-yl]oxy]benzoic acid]", "EC50": "1000 to 2000"},
      {"smiles": "CN(C(=O)c1cccc(-n2nc(C(F)(F)F)c3c2C(Oc2ccc(C(=O)O)cn2)COC3)c1)c1ccc2c(c1)OC(F)(F)O2", "note": "(single isomer, unassigned) [Compound 277, (S) or (R)-6-[[1-[3-[(2,2-difluoro-1,3-benzodioxol-5-yl)-methyl-carbamoyl]phenyl]-3-(trifluoromethyl)-6,7-dihydro-4H-pyrano[4,3-c]pyrazol-7-yl]oxy]pyridine-3-carboxylic acid]", "EC50": "< 1000"},
      {"smiles": "CN(C(=O)c1cccc(-n2nc(C(F)(F)F)c3c2C(Oc2ccc(C(=O)O)cn2)COC3)c1)c1ccc2c(c1)OC(F)(F)O2", "note": "(single isomer, unassigned) [Compound 278, (R) or (S)-6-[[1-[3-[(2,2-difluoro-1,3-benzodioxol-5-yl)-methyl-carbamoyl]phenyl]-3-(trifluoromethyl)-6,7-dihydro-4H-pyrano[4,3-c]pyrazol-7-yl]oxy]pyridine-3-carboxylic acid]", "EC50": "< 1000"},
      {"smiles": "CN(C(=O)c1cccc(-n2nc(C(F)(F)F)c3c2C(Oc2ccc(C(=O)O)cc2)CCC3)c1)c1ccc2c(c1)OCC2", "note": "(single isomer, unassigned) [Compound 279, (S) or (R)-4-[[1-[3-[2,3-dihydrobenzofuran-6-yl(methyl)carbamoyl]phenyl]-3-(trifluoromethyl)-4,5,6,7-tetrahydroindazol-7-yl]oxy]benzoic acid]", "EC50": "< 1000"},
      {"smiles": "CN(C(=O)c1cccc(-n2nc(C(F)(F)F)c3c2C(Oc2ccc(C(=O)O)cc2)CCC3)c1)c1ccc2c(c1)OCC2", "note": "(single isomer, unassigned) [Compound 280, (R) or (S)-4-[[(1-[3-[2,3-dihydrobenzofuran-6-yl(methyl)carbamoyl]phenyl]-3-(trifluoromethyl)-4,5,6,7-tetrahydroindazol-7-yl]oxy]benzoic acid]", "EC50": "< 1000"},
      {"smiles": "CN(C(=O)c1cccc(-n2nc(C(F)(F)F)c3c2C(Oc2ccc(C(=O)O)cc2)COC3)c1)c1ccc2c(c1)OCC2", "note": "(single isomer, unassigned) [Compound 282, (R) or (S)-4-[[1-[3-[2,3-dihydrobenzofuran-6-yl(methyl)carbamoyl]phenyl]-3-(trifluoromethyl)-6,7-dihydro-4H-pyrano[4,3-c]pyrazol-7-yl]oxy]benzoic acid]", "EC50": "< 1000"},
      {"smiles": "CN(C(=O)c1cccc(-n2nc(C(F)(F)F)c3c2C(Oc2ccc(C(=O)O)cc2)COC3)c1)c1ccc2c(c1)OCC2", "note": "(single isomer, unassigned) [Compound 283, (S) or (R)-4-[[1-[3-[2,3-dihydrobenzofuran-6-yl(methyl)carbamoyl]phenyl]-3-(trifluoromethyl)-6,7-dihydro-4H-pyrano[4,3-c]pyrazol-7-yl]oxy]benzoic acid]", "EC50": "1000 to 2000"},
      {"smiles": "CN(C(=O)c1cccc(-n2nc(C(F)(F)F)c3c2C(Oc2ccc(C(N)=O)cc2)CCC3)c1)c1ccc2c(c1)OC(F)(F)O2", "note": "(single isomer, unassigned) [Compound 284, (S) or (R)-3-[7-(4-Carbamoylphenoxy)-3-(trifluoromethyl)-4,5,6,7-tetrahydroindazol-1-yl]-N-(2,2-difluoro-1,3-benzodioxol-5-yl)-N-methyl-benzamide]", "EC50": "< 1000"},
      {"smiles": "CN(C(=O)c1cccc(-n2nc(C(F)(F)F)c3c2C(Oc2ccc(C(N)=O)cc2)CCC3)c1)c1ccc2c(c1)OC(F)(F)O2", "note": "(single isomer, unassigned) [Compound 285, (R) or (S)-3-[7-(4-Carbamoylphenoxy)-3-(trifluoromethyl)-4,5,6,7-tetrahydroindazol-1-yl]-N-(2,2-difluoro-1,3-benzodioxol-5-yl)-N-methyl-benzamide]", "EC50": "< 1000"},
      {"smiles": "Cc1nc2ncc(N(C)C(=O)c3cccc(-n4nc(C(F)(F)F)c5c4C(Oc4ccc(C(=O)O)cc4)CCC5)c3)cc2o1", "note": "(single isomer, unassigned) [Compound 286, (R) or (S)-4-[[1-[3-[Methyl-(2-methyloxazolo[4,5-b]pyridin-6-yl)carbamoyl]phenyl]-3-(trifluoromethyl)-4,5,6,7-tetrahydroindazol-7-yl]oxy]benzoic acid]", "EC50": "1000 to 2000"},
      {"smiles": "Cc1nc2ncc(N(C)C(=O)c3cccc(-n4nc(C(F)(F)F)c5c4C(Oc4ccc(C(=O)O)cc4)CCC5)c3)cc2o1", "note": "(single isomer, unassigned) [Compound 287, (S) or (R)-4-[[1-[3-[Methyl-(2-methyloxazolo[4,5-b]pyridin-6-yl)carbamoyl]phenyl]-3-(trifluoromethyl)-4,5,6,7-tetrahydroindazol-7-yl]oxy]benzoic acid]", "EC50": "< 1000"},
      {"smiles": "CN(C(=O)c1cccc(-n2nc(C(F)(F)F)c3c2C(Oc2ccc(C(=O)O)cc2)CCC3)c1)c1ccnc(OC(F)F)c1", "note": "(single isomer, unassigned) [Compound 288, (R) or (S)-4-[[1-[3-[[2-(Difluoromethoxy)-4-pyridyl]-methyl-carbamoyl]phenyl]-3-(trifluoromethyl)-4,5,6,7-tetrahydroindazol-7-yl]oxy]benzoic acid]", "EC50": "< 1000"},
      {"smiles": "CN(C(=O)c1cccc(-n2nc(C(F)(F)F)c3c2C(Oc2ccc(C(=O)O)cc2)CCC3)c1)c1ccnc(OC(F)F)c1", "note": "(single isomer, unassigned) [Compound 289, (S) or (R)-4-[[1-[3-[[2-(Difluoromethoxy)-4-pyridyl]-methyl-carbamoyl]phenyl]-3-(trifluoromethyl)-4,5,6,7-tetrahydroindazol-7-yl]oxy]benzoic acid]", "EC50": "< 1000"},
      {"smiles": "CN(C(=O)c1cccc(-n2nc(C(F)(F)F)c3c2C(Oc2ccc(C(=O)O)cc2)COC3)c1)c1ccnc(OC(F)F)c1", "note": "(single isomer, unassigned) [Compound 290, (R) or (S)-4-[[1-[3-[[2-(Difluoromethoxy)-4-pyridyl]-methyl-carbamoyl]phenyl]-3-(trifluoromethyl)-6,7-dihydro-4H-pyrano[4,3-c]pyrazol-7-yl]oxy]benzoic acid]", "EC50": "< 1000"},
      {"smiles": "CN(C(=O)c1cccc(-n2nc(C(F)(F)F)c3c2C(Oc2ccc(C(=O)O)cc2)COC3)c1)c1ccnc(OC(F)F)c1", "note": "(single isomer, unassigned) [Compound 291, (S) or (R)-4-[[1-[3-[[2-(difluoromethoxy)-4-pyridyl]-methyl-carbamoyl]phenyl]-3-(trifluoromethyl)-6,7-dihydro-4H-pyrano[4,3-c]pyrazol-7-yl]oxy]benzoic acid]", "EC50": "1000 to 2000"}
    ]}
  ]
}
